Tests used:
Test in all cases: relative viability (nuclei count vs DMSO), 5 days (fraction); higher = more cells survive
BEN = test system: BEN
Method in brief: (§1)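 Medians of duplicate plates are given as relative viability. That measure is the nuclei count in treated wells divided by the count in vehicle wells. Counts were taken on 4× images of lung cancer cell lines in 1536-well plates, 5 days after pin-tool dosing the day after seeding with one drug alone or a fixed anchor-drug dose plus five library-drug doses (not always all listed) in √10 steps.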

NCI-H2087 = test system: NCI-H2087
Method in brief: as §1

201T = test system: 201T
Method in brief: as §1

NCI-H1651 = test system: NCI-H1651
Method in brief: as §1

NCI-H596 = test system: NCI-H596
Method in brief: as §1

H3255 = test system: H3255
Method in brief: as §1

NCI-H1650 = test system: NCI-H1650
Method in brief: as §1

CAL-12T = test system: CAL-12T
Method in brief: as §1

NCI-H727 = test system: NCI-H727
Method in brief: as §1

NCI-H1915 = test system: NCI-H1915
Method in brief: as §1

NCI-H2023 = test system: NCI-H2023
Method in brief: as §1

NCI-H441 = test system: NCI-H441
Method in brief: as §1

NCI-H650 = test system: NCI-H650
Method in brief: as §1

NCI-H1944 = test system: NCI-H1944
Method in brief: as §1

NCI-H520 = test system: NCI-H520
Method in brief: as §1

A-427 = test system: A-427
Method in brief: as §1

NCI-H661 = test system: NCI-H661
Method in brief: as §1

PC-3 [JPC-3] = test system: PC-3 [JPC-3]
Method in brief: as §1

NCI-H460 = test system: NCI-H460
Method in brief: as §1

LCLC-97TM1 = test system: LCLC-97TM1
Method in brief: as §1

LC-2-ad = test system: LC-2-ad
Method in brief: as §1

ABC-1 = test system: ABC-1
Method in brief: as §1

COc1cc2nccc(Oc3ccc(NC(=O)Nc4cc(C)on4)c(Cl)c3)c2cc1OC [Tivozanib] + COc1cc2c(Oc3ccc(NC(=O)C4(C(=O)Nc5ccc(F)cc5)CC4)cc3F)ccnc2cc1OCCCN1CCOCC1 [Foretinib] (partner 0.25 µM)
relative viability (BEN; first compound 0.005 µM): 0.559 | relative viability (BEN; first compound 0.01581 µM): 0.789 | relative viability (BEN; first compound 0.05 µM): 0.731 | relative viability (BEN; first compound 0.1581 µM): 0.25 | relative viability (BEN; first compound 0.5 µM): 0.456 | relative viability (NCI-H2087; first compound 0.005 µM): 1.04 | relative viability (NCI-H2087; first compound 0.01581 µM): 1.12 | relative viability (NCI-H2087; first compound 0.05 µM): 1.11 | relative viability (NCI-H2087; first compound 0.1581 µM): 0.957 | relative viability (NCI-H2087; first compound 0.5 µM): 0.998 | relative viability (201T; first compound 0.005 µM): 1.14 | relative viability (201T; first compound 0.01581 µM): 1.15 | relative viability (201T; first compound 0.05 µM): 1.08 | relative viability (201T; first compound 0.1581 µM): 1.08 | relative viability (201T; first compound 0.5 µM): 1.16 | relative viability (NCI-H1651; first compound 0.005 µM): 0.784 | relative viability (NCI-H1651; first compound 0.01581 µM): 0.78 | relative viability (NCI-H1651; first compound 0.05 µM): 0.842 | relative viability (NCI-H1651; first compound 0.1581 µM): 0.645 | relative viability (NCI-H1651; first compound 0.5 µM): 0.831 | relative viability (NCI-H596; first compound 0.005 µM): 0.697 | relative viability (NCI-H596; first compound 0.01581 µM): 0.915 | relative viability (NCI-H596; first compound 0.05 µM): 0.846 | relative viability (NCI-H596; first compound 0.5 µM): 0.879 | relative viability (H3255; first compound 0.005 µM): 0.831 | relative viability (H3255; first compound 0.01581 µM): 0.839 | relative viability (H3255; first compound 0.05 µM): 0.907 | relative viability (H3255; first compound 0.1581 µM): 0.66 | relative viability (H3255; first compound 0.5 µM): 0.735 | relative viability (NCI-H1650; first compound 0.005 µM): 0.955 | relative viability (NCI-H1650; first compound 0.01581 µM): 1.18 | relative viability (NCI-H1650; first compound 0.05 µM): 1.15 | relative viability (NCI-H1650; first compound 0.1581 µM): 0.935 | relative viability (NCI-H1650; first compound 0.5 µM): 1.08 | relative viability (CAL-12T; first compound 0.005 µM): 1.07 | relative viability (CAL-12T; first compound 0.01581 µM): 0.998 | relative viability (CAL-12T; first compound 0.05 µM): 1.11 | relative viability (CAL-12T; first compound 0.1581 µM): 1.24 | relative viability (CAL-12T; first compound 0.5 µM): 0.916 | relative viability (NCI-H727; first compound 0.005 µM): 0.963 | relative viability (NCI-H727; first compound 0.01581 µM): 1.04 | relative viability (NCI-H727; first compound 0.05 µM): 1.32 | relative viability (NCI-H727; first compound 0.1581 µM): 0.853 | relative viability (NCI-H727; first compound 0.5 µM): 0.89 | relative viability (NCI-H1915; first compound 0.005 µM): 1.08 | relative viability (NCI-H1915; first compound 0.01581 µM): 1.07 | relative viability (NCI-H1915; first compound 0.05 µM): 1.1 | relative viability (NCI-H1915; first compound 0.1581 µM): 1.13 | relative viability (NCI-H1915; first compound 0.5 µM): 1.09 | relative viability (NCI-H2023; first compound 0.005 µM): 0.856 | relative viability (NCI-H2023; first compound 0.01581 µM): 0.703 | relative viability (NCI-H2023; first compound 0.05 µM): 0.989 | relative viability (NCI-H2023; first compound 0.1581 µM): 0.825 | relative viability (NCI-H2023; first compound 0.5 µM): 0.697 | relative viability (NCI-H441; first compound 0.005 µM): 0.838 | relative viability (NCI-H441; first compound 0.01581 µM): 0.893 | relative viability (NCI-H441; first compound 0.05 µM): 1.12 | relative viability (NCI-H441; first compound 0.1581 µM): 1.11 | relative viability (NCI-H441; first compound 0.5 µM): 0.934 | relative viability (NCI-H650; first compound 0.005 µM): 1 | relative viability (NCI-H650; first compound 0.01581 µM): 1.02 | relative viability (NCI-H650; first compound 0.05 µM): 0.994 | relative viability (NCI-H650; first compound 0.1581 µM): 1.02 | relative viability (NCI-H650; first compound 0.5 µM): 0.928 | relative viability (NCI-H1944; first compound 0.005 µM): 0.918 | relative viability (NCI-H1944; first compound 0.01581 µM): 0.854 | relative viability (NCI-H1944; first compound 0.05 µM): 0.926 | relative viability (NCI-H1944; first compound 0.1581 µM): 0.924 | relative viability (NCI-H1944; first compound 0.5 µM): 0.931 | relative viability (NCI-H520; first compound 0.005 µM): 0.595 | relative viability (NCI-H520; first compound 0.01581 µM): 0.702 | relative viability (NCI-H520; first compound 0.05 µM): 0.74 | relative viability (NCI-H520; first compound 0.1581 µM): 0.644 | relative viability (NCI-H520; first compound 0.5 µM): 0.712 | relative viability (A-427; first compound 0.005 µM): 1.03 | relative viability (A-427; first compound 0.01581 µM): 1.11 | relative viability (A-427; first compound 0.05 µM): 1.05 | relative viability (A-427; first compound 0.1581 µM): 1.06 | relative viability (A-427; first compound 0.5 µM): 1.02 | relative viability (NCI-H661; first compound 0.005 µM): 1 | relative viability (NCI-H661; first compound 0.01581 µM): 0.997 | relative viability (NCI-H661; first compound 0.05 µM): 1.03 | relative viability (NCI-H661; first compound 0.1581 µM): 0.806 | relative viability (NCI-H661; first compound 0.5 µM): 0.987 | relative viability (PC-3 [JPC-3]; first compound 0.005 µM): 1.01 | relative viability (PC-3 [JPC-3]; first compound 0.01581 µM): 1.07 | relative viability (PC-3 [JPC-3]; first compound 0.05 µM): 1.07 | relative viability (PC-3 [JPC-3]; first compound 0.1581 µM): 1.06 | relative viability (PC-3 [JPC-3]; first compound 0.5 µM): 1.01 | relative viability (NCI-H460; first compound 0.005 µM): 0.983 | relative viability (NCI-H460; first compound 0.01581 µM): 0.948 | relative viability (NCI-H460; first compound 0.05 µM): 0.972 | relative viability (NCI-H460; first compound 0.1581 µM): 1.01 | relative viability (NCI-H460; first compound 0.5 µM): 0.96 | relative viability (LCLC-97TM1; first compound 0.005 µM): 0.904 | relative viability (LCLC-97TM1; first compound 0.01581 µM): 0.939 | relative viability (LCLC-97TM1; first compound 0.05 µM): 0.92 | relative viability (LCLC-97TM1; first compound 0.1581 µM): 0.982 | relative viability (LCLC-97TM1; first compound 0.5 µM): 0.928 | relative viability (LC-2-ad; first compound 0.005 µM): 0.917 | relative viability (LC-2-ad; first compound 0.01581 µM): 1.02 | relative viability (LC-2-ad; first compound 0.05 µM): 0.857 | relative viability (LC-2-ad; first compound 0.1581 µM): 0.972 | relative viability (LC-2-ad; first compound 0.5 µM): 0.788 | relative viability (ABC-1; first compound 0.005 µM): 1.01 | relative viability (ABC-1; first compound 0.01581 µM): 1.21 | relative viability (ABC-1; first compound 0.05 µM): 1 | relative viability (ABC-1; first compound 0.1581 µM): 1.06 | relative viability (ABC-1; first compound 0.5 µM): 1.02
